Test results: patent publication US5451518A, “Purified human ceramide-activated protein kinase” (Sloan-Kettering Institute for Cancer Research, priority 1992, dated 1995)
Entries after “also recorded” stand apart in the source; their conditions may differ. Like-named read-outs stand apart in the source and are kept apart here.

What was measured:
[1] = tested on: ceramide-activated protein kinase; assay: Phosphoamino acid analysis of phosphorylated EGFR peptide; assay type: biochemical, human; details: A-431
Description: Reactions were done, and phosphorylated peptide was quantified as for FIG. 2. (Left) HPLC elution profile of samples with or without the EGFR peptide. (Right) Phosphoamino acid analysis of the phosphorylated peptide purified by HPLC. Phosphorylated amino acids (Y, […]; T, threonine; S, serine) were resolved by one-dimensional thin-layer electrophoresis and identified by ninhydrin staining of carrier phosphoamino acids and autoradiography.
To determine which amino acid was phosphorylated, phosphoamino acid analysis of the peptide was done. The phosphopeptide peak obtained by HPLC was subjected to partial acid hydrolysis (1 hr at 110° C. in 6M HCl). The hydrolysates were dried, resuspended in 250 μl of water, and applied to a Dowex AG1-X8 column (Bio-Rad). Amino acids were eluted with 0.5M HCl, dried, and analyzed by thin-layer electrophoresis, according to methods well known to those skilled in the art (26). Individual phosphoamino acids were identified by ninhydrin staining of carrier phosphoamino acids and by autoradiography.

[2] = tested on: ceramide-activated protein kinase; details: for effect on EGFR peptide phosphorylation (in words): A-431
[3] = tested on: ceramide-activated protein kinase; details: HL-60; cholera toxin 10 nM, retinoic acid 0.5 μM, butyrate 0.5 mM
[4] = tested on: ceramide-activated protein kinase; details: cited from earlier work
[5] = tested on: epidermal growth factor receptor (EGFR); details: A-431 cells; cited from earlier work
[6] = tested on: ceramide-activated protein kinase
Description: Homogenates were centrifuged at 500×g for 5 minutes to remove nuclei and at 200,000×g for 30 minutes to prepare microsomal membranes. Membranes were resuspended into homogenizing buffer (2.2 μg membrane protein μl^-1). For assay of kinase activity, the reaction mixture contained 20 μl of microsomal membrane, 40 μl EGFR peptide (4 mg ml^-1 in 25 mM Hepes, pH 7.4) and 100 μl buffer (50 mM HEPES, pH 7.4, 20 mM MgCl2) (40). Phosphorylation was initiated at 22° C. by addition of 40 μl [γ-^32 P] ATP (100 μM final concentration) and terminated at the indicated times by addition of 40 μl of 0.5M ATP in 90% formic acid. Phosphorylated peptide was eluted from a C18 Sep pak cartridge (Millipore), lyophilized, and resolved by C18 reverse phase HPLC using a linear gradient of acetonitrile. […] All assays were performed under conditions determined as linear for time and enzyme concentration. Enzyme activity was determined from the percent conversion of substrate to product and the specific radioactivity of [γ-^32 P] ATP. […] Values (mean ± range) represent duplicate determinations from two experiments.
Activity was measured by the transfer of ^32 P from the γ-position of ATP to EGFR peptide (AA 663-681 of the EGFR). The effect of IL-1β on kinase activity was determined using microsomal membranes derived from cells stimulated with IL-1β.

[7] = tested on: A-431 human epidermoid carcinoma cells; details: A-431 cells; cited from earlier work
HL-60 cells [8] = details: cited from earlier work
HL-60 cells [9] = details: cited from earlier work; remark: listed apart in the source

Ceramide
phosphorylated residue [1]: exclusively on the threonine residue | lowest effective concentration ([2]; 2 minutes): 1 nM | effect on EGFR peptide phosphorylation (in words) [2]: Only membrane activity was enhanced | effect on EGFR peptide phosphorylation (in words) ([2]; listed as natural ceramide (Sigma type III)): similarly effective | increase in kinase activity ([2]; a-431 cells, 0.5 min, 0.5 µM): 2 -fold | maximal effect on EGFR peptide phosphorylation ([2]; a-431 cells, 2 min, 1 µM): 2.1 -fold of control | lowest effective concentration ([2]; abstract): 1 nM | duration of stimulation of kinase activity ([2]; ceramide 0.5 μM): at least 15 minutes | time at which stimulation of EGFR peptide phosphorylation was evident ([2]; ceramide 0.5 μM): ≤ 30 s | concentration for maximal effect ([2]; peptide phosphorylation, 2 minutes): 1 µM | EC50 ([2]; read-out: ED50 for EGFR peptide phosphorylation, 2 minutes): ~30 nM | effect on kinase activity (in words) [3]: induced a similar effect | maximum enhancement of kinase activity ([4]; ceramide 0.001 to 3 μM): two-fold of the control | EGFR phosphorylation on Thr-669 [5]: induced identical effects; also recorded: induced identical phosphorylation

CCCCCCCCCCCCC/C=C/[C@@H](O)[C@@H](N)CO [sphingosine]
enhancement of kinase activity ([6]; 10 nM to 1 μM): 1.5-2.5 of control | effect on EGFR peptide phosphorylation (in words) [2]: similarly effective | stimulation of EGFR peptide phosphorylation ([2]; sphingosine (0.001-3 μM), 2 minutes): 1.6 fold of control | effect on kinase activity (in words) [3]: similarly as effective as C8-cer | EGFR phosphorylation on Thr-669 [5]: enhanced phosphorylation of the EGFR on Thr-669; also recorded: stimulated phosphorylation of the EGFR on Thr-669; also recorded: induced epidermal growth factor receptor (EGFR) phosphorylation on Thr-669 | conversion to ceramide [7]: rapidly converted to ceramide

NH2 -Glu-Leu-Val-Glu-Pro-Leu-Thr-Pro-Ser-Gly-Glu-Ala-Pro-Asn-Gln-Ala-Leu-Leu-Arg-COOH (H-ELVEPLTPSGEAPNQALLR-OH) [EGFR peptide, EGFR peptide (amino acids 663-681)]
maximum reaction velocity ([6]; EL-4, baseline): 12.5 pmol min^-1 mg^-1 of microsomal membrane protein | Michaelis constant (Km) for EGFR peptide ([6]; EL-4 microsomal membrane, baseline): 0.15 mg/mL | phosphorylated residue [1]: only threonine-669 served as substrate | Apparent Km for EGFR peptide ([2]; A-431, 5 minutes): 0.25 mg/mL | Apparent Vmax ([2]; A-431, EGFR peptide substrate): 100-200 pmol.min^-` /mg of protein^-1 | maximum velocity (V°max) ([4]; EGFR peptide substrate): 50 to 100 pmol per minute per milligram (pmol min^-1 mg^-1) of protein | Michaelis constant (Km) for peptide ([4]; nuclei-free supernates): 0.25 mg/mL

B1: γ interferon: factor that induces monocytic differentiation of HL-60 cells (protein, UniProt P01579 24-161, looked up)
Interferon gamma: QDPYVKEAENLKKYFNAGHSDVADNGTLFLGILKNWKEESDRKIMQSQIVSFYFKLFKNFKDDQSIQKSVETIKEDMNVKFFNSNKKKRDDFEKLTNYSVTDLNVQRKAIHELIQVMAELSPAAKTGKRKRSQMLFRG
sphingomyelin degradation to ceramide / ceramide level (in words) (HL-60 cells [8]): stimulate sphingomyelin degradation to ceramide | monocytic differentiation (HL-60 cells [9]): induce monocytic differentiation
